Measured values published in ChEMBL document CHEMBL3593227, “A New Class of Potent N-Methyl-D-Aspartate Receptor Inhibitors: Sulfated Neuroactive Steroids with Lipophilic D-Ring Modifications” (J Med Chem, 2015).
Activity calls are given as the source filed them. No cut-off for these calls is given here.

What was measured:
[1] = target: T1, Glutamate NMDA receptor; GRIN1/GRIN2B (Homo sapiens, UniProt Q05586+Q13224); experiment: Inhibition of recombinant GluN1/GluN2B receptor (unknown origin) expressed in HEK293 cells assessed as inhibition of glutamate-evoked current by whole-cell voltage-clamp method; format: cell-based
[2] = target: T1, Glutamate NMDA receptor; GRIN1/GRIN2B; experiment: Inhibition of recombinant GluN1/GluN2B receptor (unknown origin) expressed in HEK293 cells assessed as inhibition of glutamate-evoked current at 1 to 10 uM by whole-cell voltage-clamp method; format: cell-based
[3] = target: Glutamate NMDA receptor; GRIN1/GRIN2A (Homo sapiens, UniProt Q05586+Q12879); experiment: Inhibition of recombinant GluN1/GluN2A receptor (unknown origin) expressed in HEK293 cells assessed as inhibition of glutamate-evoked current by whole-cell voltage-clamp method; format: cell-based
Chain of Glutamate NMDA receptor; GRIN1/GRIN2A (Q12879 whole entry, other chains not shown): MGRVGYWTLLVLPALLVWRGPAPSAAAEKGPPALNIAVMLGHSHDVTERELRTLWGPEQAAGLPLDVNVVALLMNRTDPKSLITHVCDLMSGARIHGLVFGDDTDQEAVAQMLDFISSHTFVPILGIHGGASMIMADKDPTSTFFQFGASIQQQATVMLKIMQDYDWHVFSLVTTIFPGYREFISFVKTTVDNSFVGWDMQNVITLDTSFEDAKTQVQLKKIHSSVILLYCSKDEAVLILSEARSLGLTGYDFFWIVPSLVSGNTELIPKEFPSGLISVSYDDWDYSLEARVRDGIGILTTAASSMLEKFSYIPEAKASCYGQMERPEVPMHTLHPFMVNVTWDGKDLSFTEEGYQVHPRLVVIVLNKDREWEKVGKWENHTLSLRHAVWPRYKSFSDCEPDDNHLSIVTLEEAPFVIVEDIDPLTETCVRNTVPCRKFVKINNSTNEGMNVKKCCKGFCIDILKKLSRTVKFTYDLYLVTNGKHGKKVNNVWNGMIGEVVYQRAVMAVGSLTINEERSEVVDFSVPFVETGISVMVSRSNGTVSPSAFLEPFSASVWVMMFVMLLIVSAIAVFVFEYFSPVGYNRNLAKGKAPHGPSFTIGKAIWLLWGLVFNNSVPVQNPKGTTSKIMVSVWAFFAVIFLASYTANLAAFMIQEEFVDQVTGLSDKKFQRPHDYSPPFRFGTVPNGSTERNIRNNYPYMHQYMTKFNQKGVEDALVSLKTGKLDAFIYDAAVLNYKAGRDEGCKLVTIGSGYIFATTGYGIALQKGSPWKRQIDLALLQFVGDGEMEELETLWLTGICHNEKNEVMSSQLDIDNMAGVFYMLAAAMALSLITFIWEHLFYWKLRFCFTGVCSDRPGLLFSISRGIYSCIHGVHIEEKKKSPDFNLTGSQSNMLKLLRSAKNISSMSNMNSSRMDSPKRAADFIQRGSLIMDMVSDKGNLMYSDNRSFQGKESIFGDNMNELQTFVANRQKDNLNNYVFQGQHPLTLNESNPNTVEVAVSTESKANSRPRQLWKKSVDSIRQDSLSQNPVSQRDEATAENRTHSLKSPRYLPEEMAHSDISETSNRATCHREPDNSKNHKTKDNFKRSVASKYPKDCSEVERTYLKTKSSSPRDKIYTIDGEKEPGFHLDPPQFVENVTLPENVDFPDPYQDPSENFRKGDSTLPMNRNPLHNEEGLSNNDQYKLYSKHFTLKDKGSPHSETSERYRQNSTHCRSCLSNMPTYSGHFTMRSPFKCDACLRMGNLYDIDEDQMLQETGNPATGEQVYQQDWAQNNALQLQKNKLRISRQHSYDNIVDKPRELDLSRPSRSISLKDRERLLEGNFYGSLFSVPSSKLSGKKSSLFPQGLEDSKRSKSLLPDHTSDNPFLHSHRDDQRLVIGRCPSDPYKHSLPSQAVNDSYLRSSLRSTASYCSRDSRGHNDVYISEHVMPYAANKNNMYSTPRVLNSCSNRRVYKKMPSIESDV

[4] = target: Ionotropic glutamate receptor NMDA 1/2C (Homo sapiens, UniProt Q05586+Q14957); experiment: Inhibition of recombinant GluN1/GluN2C receptor (unknown origin) expressed in HEK293 cells assessed as inhibition of glutamate-evoked current by whole-cell voltage-clamp method; format: cell-based
Chain of Ionotropic glutamate receptor NMDA 1/2C (Q14957 whole entry, other chains not shown): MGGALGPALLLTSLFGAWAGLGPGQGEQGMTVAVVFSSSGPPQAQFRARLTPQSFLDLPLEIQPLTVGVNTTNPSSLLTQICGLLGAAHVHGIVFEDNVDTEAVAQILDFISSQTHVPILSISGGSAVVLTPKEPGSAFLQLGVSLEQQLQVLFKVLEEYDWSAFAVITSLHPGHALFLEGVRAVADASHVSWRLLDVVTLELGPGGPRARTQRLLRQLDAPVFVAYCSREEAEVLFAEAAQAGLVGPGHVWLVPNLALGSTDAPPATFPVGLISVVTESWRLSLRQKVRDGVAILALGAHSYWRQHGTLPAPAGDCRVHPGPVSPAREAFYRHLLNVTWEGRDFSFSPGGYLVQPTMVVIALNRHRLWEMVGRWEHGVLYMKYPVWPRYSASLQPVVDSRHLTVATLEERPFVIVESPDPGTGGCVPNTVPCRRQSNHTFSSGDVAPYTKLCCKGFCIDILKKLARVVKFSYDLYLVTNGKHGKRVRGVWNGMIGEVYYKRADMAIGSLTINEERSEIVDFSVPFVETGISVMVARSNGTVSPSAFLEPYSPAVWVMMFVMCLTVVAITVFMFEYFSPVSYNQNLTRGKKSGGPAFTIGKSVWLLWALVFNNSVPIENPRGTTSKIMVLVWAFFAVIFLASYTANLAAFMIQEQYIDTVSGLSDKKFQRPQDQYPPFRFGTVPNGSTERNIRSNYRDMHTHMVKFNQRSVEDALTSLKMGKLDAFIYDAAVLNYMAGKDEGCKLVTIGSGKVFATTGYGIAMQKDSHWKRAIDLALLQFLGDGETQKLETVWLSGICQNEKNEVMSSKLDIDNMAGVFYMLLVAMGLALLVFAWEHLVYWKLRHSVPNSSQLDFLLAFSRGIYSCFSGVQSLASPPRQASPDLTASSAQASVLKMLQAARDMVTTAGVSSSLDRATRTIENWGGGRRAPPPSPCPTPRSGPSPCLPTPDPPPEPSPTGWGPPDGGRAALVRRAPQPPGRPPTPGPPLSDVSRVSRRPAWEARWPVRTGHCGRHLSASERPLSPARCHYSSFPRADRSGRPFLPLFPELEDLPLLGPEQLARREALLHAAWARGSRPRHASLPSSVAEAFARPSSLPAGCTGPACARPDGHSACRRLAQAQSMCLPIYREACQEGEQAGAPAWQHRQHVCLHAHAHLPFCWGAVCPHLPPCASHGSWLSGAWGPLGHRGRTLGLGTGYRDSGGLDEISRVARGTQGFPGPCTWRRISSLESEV

[5] = target: Ionotropic glutamate receptor NMDA 1/2D (Homo sapiens, UniProt O15399+Q05586); experiment: Inhibition of recombinant GluN1/GluN2D receptor (unknown origin) expressed in HEK293 cells assessed as inhibition of glutamate-evoked current by whole-cell voltage-clamp method; format: cell-based
Chain of Ionotropic glutamate receptor NMDA 1/2D (O15399 whole entry, other chains not shown): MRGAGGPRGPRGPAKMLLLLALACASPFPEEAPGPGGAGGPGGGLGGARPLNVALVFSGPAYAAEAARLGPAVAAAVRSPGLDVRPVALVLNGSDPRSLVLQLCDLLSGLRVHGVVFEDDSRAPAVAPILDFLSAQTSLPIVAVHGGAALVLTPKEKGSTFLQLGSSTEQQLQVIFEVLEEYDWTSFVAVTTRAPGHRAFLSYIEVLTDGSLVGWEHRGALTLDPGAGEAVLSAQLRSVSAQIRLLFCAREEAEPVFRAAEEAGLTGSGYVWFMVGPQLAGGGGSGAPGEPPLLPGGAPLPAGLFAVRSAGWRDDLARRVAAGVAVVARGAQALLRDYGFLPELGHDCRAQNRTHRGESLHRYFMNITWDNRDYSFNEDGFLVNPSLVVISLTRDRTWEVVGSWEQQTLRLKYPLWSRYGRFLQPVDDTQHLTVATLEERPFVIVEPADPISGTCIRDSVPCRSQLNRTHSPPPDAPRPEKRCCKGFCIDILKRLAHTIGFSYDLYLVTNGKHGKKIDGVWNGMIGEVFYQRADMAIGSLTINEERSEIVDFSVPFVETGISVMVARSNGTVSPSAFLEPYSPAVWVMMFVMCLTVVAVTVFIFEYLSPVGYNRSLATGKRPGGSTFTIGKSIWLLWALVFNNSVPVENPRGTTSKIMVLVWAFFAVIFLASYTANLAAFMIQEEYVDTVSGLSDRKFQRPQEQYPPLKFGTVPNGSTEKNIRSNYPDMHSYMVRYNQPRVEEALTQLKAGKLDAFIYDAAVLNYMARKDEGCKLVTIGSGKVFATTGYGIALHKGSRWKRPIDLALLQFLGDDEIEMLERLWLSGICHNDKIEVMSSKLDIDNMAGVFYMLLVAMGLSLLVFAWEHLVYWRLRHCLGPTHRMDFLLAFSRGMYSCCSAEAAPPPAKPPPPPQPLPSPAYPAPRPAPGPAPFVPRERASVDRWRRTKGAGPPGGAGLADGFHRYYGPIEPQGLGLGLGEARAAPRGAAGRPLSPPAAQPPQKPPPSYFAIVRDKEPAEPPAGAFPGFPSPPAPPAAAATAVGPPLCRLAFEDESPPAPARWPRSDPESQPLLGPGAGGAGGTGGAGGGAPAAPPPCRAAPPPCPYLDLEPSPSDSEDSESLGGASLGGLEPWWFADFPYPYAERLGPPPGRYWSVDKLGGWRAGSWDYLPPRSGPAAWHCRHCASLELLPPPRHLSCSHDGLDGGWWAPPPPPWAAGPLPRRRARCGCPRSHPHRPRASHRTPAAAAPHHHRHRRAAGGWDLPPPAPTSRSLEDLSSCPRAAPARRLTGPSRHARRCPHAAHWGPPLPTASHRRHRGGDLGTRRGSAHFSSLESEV

Glutamate NMDA receptor = experiment: Inhibition of NMDA receptor in rat hippocampal neurons assessed as inhibition of glutamate-evoked current by whole-cell voltage-clamp method; format: tissue-based, Hippocampus
[6] = Inhibition of AMPA receptor in rat hippocampal neurons assessed as inhibition of AMPA-evoked current by whole-cell voltage-clamp method in presence of receptor desensitization inhibitor cyclothiazide; format: tissue-based; conditions: Hippocampus
[7] = Inhibition of GABA receptor in rat hippocampal neurons assessed as inhibition of GABA-evoked current by whole-cell voltage-clamp method; format: tissue-based; conditions: Hippocampus

Row | SMILES | IC50 [1] | further results
1 | C=C1CC[C@H]2[C@@H]3CC[C@@H]4C[C@H](OS(=O)(=O)O)CC[C@]4(C)[C@H]3CC[C@]12C.c1ccncc1 | 1.6 µM | –
2 | CC[C@@H](C)[C@H]1CC[C@H]2[C@@H]3CC[C@@H]4C[C@H](OS(=O)(=O)O)CC[C@]4(C)[C@H]3CC[C@]12C.c1ccncc1 | 0.09 µM | –
3 | C[C@@]12CCCC[C@H]1[C@@H]1CC[C@@H]3C[C@H](OS(=O)(=O)O)CC[C@]3(C)[C@H]1CC2.c1ccncc1 | 1.1 µM | –
4 | C[C@H]1CC[C@@H]2[C@@H]1CC[C@H]1[C@H]2CC[C@@H]2C[C@H](OS(=O)(=O)O)CC[C@@]21C.c1ccncc1 | 0.7 µM | –
5 | CC(=O)[C@H]1CC[C@H]2[C@@H]3CC[C@@H]4C[C@H](OS(=O)(=O)O)CC[C@]4(C)[C@H]3CC[C@]12C | 23.4 µM | inhibition [1]: Dose-dependent effect
6 | CC[C@H]1CC[C@H]2[C@@H]3CC[C@@H]4C[C@H](OS(=O)(=O)O)CC[C@]4(C)[C@H]3CC[C@]12C.c1ccncc1 | 0.4 µM | –
7 | C[C@]12CC[C@@H](OS(=O)(=O)O)C[C@H]1CC[C@@H]1[C@@H]2CC[C@]2(C)C=CC[C@@H]12.c1ccncc1 | – | inhibition [2]: inactive
8 | C[C@@]12CCC[C@H]1[C@@H]1CC[C@@H]3C[C@H](OS(=O)(=O)O)CC[C@@H]3[C@H]1CC2.c1ccncc1 | 5.4 µM | –
9 | C[C@]12CC[C@@H](OS(=O)(=O)O)C[C@H]1CC[C@@H]1[C@@H]2CC[C@@]2(C)[C@H]1CCC2(F)F.c1ccncc1 | 7 µM | –
10 | C[C@@H]1CC[C@@H]2[C@H]1CC[C@H]1[C@H]2CC[C@@H]2C[C@H](OS(=O)(=O)O)CC[C@@]21C.c1ccncc1 | 0.9 µM | –
11 | C[C@H]1CC[C@H]2[C@@H]3CC[C@@H]4C[C@H](OS(=O)(=O)O)CC[C@]4(C)[C@H]3CC[C@]12C.c1ccncc1 | 0.6 µM | IC50 [3]: 0.6 µM; IC50 [4]: 0.4 µM; IC50 [5]: 0.5 µM; IC50 (Glutamate NMDA receptor): 0.9 µM; IC50 [6]: 9.5 µM; IC50 [7]: 1.2 µM
12 | C=C1C[C@H]2[C@@H]3CC[C@@H]4C[C@H](OS(=O)(=O)O)CC[C@]4(C)[C@H]3CC[C@]2(C)C1.c1ccncc1 | 2.2 µM | –
13 | C[C@]12CC[C@@H](OS(=O)(=O)O)C[C@H]1CC[C@@H]1[C@@H]2CC[C@]2(C)[C@@H](I)CC[C@@H]12.c1ccncc1 | 0.6 µM | –
14 | C[C@@]12CCC[C@H]1[C@@H]1CC[C@@H]3C[C@H](OS(=O)(=O)O)CC[C@]3(C)[C@H]1CC2.c1ccncc1 | 1.2 µM | –
15 | C/C=C1/CC[C@H]2[C@@H]3CC[C@@H]4C[C@H](OS(=O)(=O)O)CC[C@]4(C)[C@H]3CC[C@]12C.c1ccncc1 | 0.8 µM | –
16 | CC(C)[C@H]1CC[C@H]2[C@@H]3CC[C@@H]4C[C@H](OS(=O)(=O)O)CC[C@]4(C)[C@H]3CC[C@]12C.c1ccncc1 | 0.17 µM | –
17 | C=C(C)[C@H]1CC[C@H]2[C@@H]3CC[C@@H]4C[C@H](OS(=O)(=O)O)CC[C@]4(C)[C@H]3CC[C@]12C.c1ccncc1 | 0.5 µM | –
